Each structure is given as a SMILES string.

In one data set the test system is anaesthetized rats. Description: Carotid blood flow (CaBF) in anaesthetized rats, continuous i.v. infusion. The format is in vivo, rat. The settings on record: for effect of inosine alone on CaBF: 5 min i.v. infusion. Here is the method:
The study was conducted on 7 week old male Wistar rats weighing 250-300 g. Rats were anaesthetized with Inactin 100 mg/kg i.p. Inactin was preferred to other anaesthetics because of its moderate impact on blood pressure. Heparin-filled (100 IU/ml in saline) catheters were introduced into the left common carotid artery and into the left jugular vein for measurement of blood pressure and drug administration respectively. A flow probe was inserted around the right carotid artery for measurement of carotid blood flow (CaBF).
In a first series of experiments, adenosine was administered as a single agent to identify the dose providing maximal increase in carotid arterial blood flow (“adenosine max”). In this experiment, various concentrations of adenosine were infused continuously through the jugular vein catheter for 5 minutes, with concurrent measurement of carotid arterial blood flow.
A second series of experiments was performed to assess whether inosine could potentiate the effects on CaBF of a continuous intravenous infusion of adenosine at half adenosine max.
In each experiment, the effect on CaBF of (i) adenosine as a single agent, infused continuously for five minutes at adenosine max (0.1 mg/kg/min), (ii) adenosine as single agent infused continuously for five minutes at half adenosine max (0.05 mg/kg/min), and (iii) a composition containing a fixed dose of adenosine at half adenosine max (0.05 mg/kg/min) combined with inosine infused continuously for five minutes, was assessed. In separate experiments, inosine was included in the combined (“BIDOSINE”) composition in amounts required to achieve infusion at 0.1 mg/kg/min (A:I weight ratio of 1:2, FIG. 2A), 0.15 mg/kg/min (A:I weight ratio of 1:3, FIG. 2B), 0.2 mg/kg/min (A:I weight ratio of 1:4, FIG. 2C), and 0.25 mg/kg/min (A:I weight ratio of 1:5, FIG. 2D).

The nature of data set [1]: Maximal solubility in nonpyrogenic fluid suitable for parenteral infusion. The format is physicochemical. The settings on record: adenosine and inosine combined in a nonpyrogenic fluid suitable for parenteral infusion. As for the experimental part: Combined in a nonpyrogenic, fluid suitable for parenteral infusion, maximal adenosine solubility is about 4 mg/ml and that of inosine 20 mg/ml. Concentrations approaching one or both of these maxima are convenient for unit dosage forms intended for long infusion times, since high concentrations of the nucleoside actives reduce the volume required to be infused. Typical embodiments include, for example, 250 ml containers (vials, etc.) containing 1,000 mg of adenosine with 100 mg, 1,000 mg, 2,000 mg, or even 3,000 mg, 4,000 mg, 5,000 mg, even 6,000 mg of inosine, with intermediate inosine amounts permissible.

On to `OC[C@H]1O[C@@H](n2cnc3c(O)ncnc32)[C@H](O)[C@@H]1O` [inosine], for which the “increase in CaBF, percentage variation from baseline” value in the data set on anaesthetized rats (6 min continuous i.v. infusion, adenosine 0.05 mg/kg/min, inosine 0.2 mg/kg/min, alone or combined (A:I 1:4), Mean±SEM, n=6) amounted to 4±2%. The “effect of inosine alone on CaBF” value is “No response” with anaesthetized rats (inosine 0.3 mg/kg/min); “Modest decreases in CaBF” in the data set with anaesthetized rats (inosine 1 mg/kg/min (10 times adenosine max)); “sharp slump and dose-dependent decrease in CaBF” in the data set with anaesthetized rats (inosine between 1 to 10 mg/kg/min). In addition, in data set [1], the solubility (usually the dissolved amount per volume that the medium holds) came out at 20 mg/mL.

Values taken from patent US20080056993A1, “Compositions, Methods and Kits Using Adenosine and Inosine in Combination for Diagnosis and Treatment” (ADENOBIO N.V., priority 2006, published 2008).
